Patent US10227331B2 (priority 2015, dated 2019)

Tests used:
IMP-1 = IMP-1 (Serratia marcescens, UniProt P52699); assay: biochemical; type: biochemical; conditions: CCF2-FA substrate, 2 hours at 25° C; read-out: IMP-1 IC50
Summary of the method: (§1)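 IC50 values derive from 4-parameter fits of percent inhibition against inhibitor concentration on semi-log axes. Activity was monitored by fluorescence with the CCF2-FA substrate after a 2-hour, 25° C incubation of compound, enzyme and substrate.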

NDM-1 = NDM-1 (Klebsiella pneumoniae, UniProt C7C422); assay: biochemical; type: biochemical; conditions: CCF2-FA substrate, 2 hours at 25° C; read-out: NDM-1 IC50
Sequence of NDM-1 (C7C422 whole entry, looked up, species assumed): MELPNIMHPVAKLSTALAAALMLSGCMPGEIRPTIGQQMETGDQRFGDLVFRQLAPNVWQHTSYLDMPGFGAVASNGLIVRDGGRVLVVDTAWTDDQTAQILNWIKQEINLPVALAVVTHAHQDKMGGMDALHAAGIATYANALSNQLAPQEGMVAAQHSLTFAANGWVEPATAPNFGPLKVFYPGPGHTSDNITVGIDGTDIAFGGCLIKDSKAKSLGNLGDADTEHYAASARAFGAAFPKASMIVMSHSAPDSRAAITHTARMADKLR
Summary of the method: as §1

[1] = tested on: P. aeruginosa expressing IMP-1, efflux+ (MB9798); type: cell-based, Pseudomonas aeruginosa; conditions: for P. aeruginosa expressing IMP-1, efflux+ (MB9798) MITC95: imipenem at 2 μg/mL, in the presence of a class A, C, D serine β-lactamase inhibitor closely related to relebactam; for Efflux ratio: ratio MITC95 PA_9798/MITC95 PA_9799
Description: (§2) The strain background is Pseudomonas aeruginosa PAO1.

[2] = tested on: Klebsiella pneumoniae expressing VIM-1 (IHMA599644); type: cell-based; conditions: with imipenem 1 μg/ml; 95% inhibition of bacterial growth
Summary of the method: (§3)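 Restoration of imipenem susceptibility (1 μg/ml imipenem) was judged by absorbance after 22–24 h at 35° C. Test compound was added to bacteria suspended 1:100 in 1.1× CAMHB from overnight blood-agar cultures.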

[3] = tested on: Serratia marcescens expressing IMP-1 (CL5741); type: cell-based; conditions: with imipenem 1 μg/ml; 95% inhibition of bacterial growth
Summary of the method: as §3

[4] = tested on: Escherichia coli expressing NDM-1 (CLB30005, CLB30016); type: cell-based; conditions: with imipenem 1 μg/ml; 95% inhibition of bacterial growth
Summary of the method: as §3

[5] = tested on: P. aeruginosa expressing IMP-1, efflux− (MB9799); assay: Efflux: concentration of MBL inhibitor which restores susceptibility to imipenem; type: cell-based, Pseudomonas aeruginosa; conditions: imipenem at 2 μg/mL, in the presence of a class A, C, D serine β-lactamase inhibitor closely related to relebactam
Description: as §2

VIM-1 = VIM-1 (Pseudomonas aeruginosa (strain ATCC 15692 / DSM 22644 / CIP 104116 / JCM 14847 / LMG 12228 / 1C / PRS 101 / PAO1), UniProt A0A0F7KYQ8); assay: biochemical; conditions: CCF2-FA substrate, 2 hours at 25° C
Summary of the method: as §1

Sequence of IMP-1 (P52699 whole entry, looked up, species assumed): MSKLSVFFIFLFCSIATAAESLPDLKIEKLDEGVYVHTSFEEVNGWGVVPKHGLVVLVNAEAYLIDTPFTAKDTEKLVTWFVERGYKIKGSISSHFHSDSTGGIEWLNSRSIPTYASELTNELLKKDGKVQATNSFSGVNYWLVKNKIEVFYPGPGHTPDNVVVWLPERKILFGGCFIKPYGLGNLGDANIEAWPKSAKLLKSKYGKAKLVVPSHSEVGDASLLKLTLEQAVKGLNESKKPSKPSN

| Structure (SMILES) | IC50 (IMP-1) [nM] | IC50 (NDM-1) [nM] | P. aeruginosa expressing IMP-1, efflux+ (MB9798) MITC95 [1] [µM] | Efflux ratio [1] | Klebsiella pneumoniae expressing VIM-1 (IHMA599644) MITC95 [2] [µM] | Serratia marcescens expressing IMP-1 (CL5741) MITC95 [3] [µM] | Escherichia coli expressing NDM-1 (CLB30016) MITC95 [4] [µM] | P. aeruginosa expressing IMP-1, efflux− (MB9799) MITC95 [5] [µM] | IC50 (VIM-1) [nM] |
| --- | --- | --- | --- | --- | --- | --- | --- | --- | --- |
| NC(=O)CN1CC(S(=O)(=O)c2ccc(-c3cccc4[nH]c(N)nc34)c(-c3nn[nH]n3)c2S(N)(=O)=O)C1 [Example 50, 2-(3-(4-(2-amino-1H-benzo[d]imidazol-4-yl)-2-sulfamoyl-3-(2H-tetrazol-5-yl)phenylsulfonyl)azetidin-1-yl)acetamide] | 1.44 | 0.242 | 3.125 | 1.00 | 6.25 | 3.125 | 3.125 | 3.125 | 0.585 |
| NCCN1CC(S(=O)(=O)c2ccc(-c3cccc4[nH]c(N)nc34)c(-c3nn[nH]n3)c2S(N)(=O)=O)C1 [Example 51, 3-(2-amino-1H-benzo[d]imidazol-4-yl)-6-(1-(2-aminoethyl)azetidin-3-ylsulfonyl)-2-(2H-tetrazol-5-yl)benzenesulfonamide] | 1.31 | 0.145 | 0.7813 | 1.00 | 1.563 | 0.7813 | 0.3906 | 0.7813 | 0.426 |
| CN1CC(S(=O)(=O)c2ccc(-c3cccc4[nH]c(N)nc34)c(-c3nn[nH]n3)c2S(N)(=O)=O)C1 [Example 52, 3-(2-amino-1H-benzo[d]imidazol-4-yl)-6-(1-methylazetidin-3-ylsulfonyl)-2-(2H-tetrazol-5-yl)benzenesulfonamide] | 1.33 | 0.222 | 6.25 | 4.00 | 3.125 | 1.563 | 0.3906 | 1.563 | 0.628 |
| Nc1nc2c(-c3ccc(S(=O)(=O)C4CN(CCO)C4)c(S(N)(=O)=O)c3-c3nn[nH]n3)cccc2[nH]1 [Example 53, 3-(2-amino-1H-benzo[d]imidazol-4-yl)-6-(1-(2-hydroxyethyl)azetidin-3-ylsulfonyl)-2-(2H-tetrazol-5-yl)benzenesulfonamide] | 6.12 | 0.458 | 12.5 | 2.00 | 12.5 | 6.25 | 12.5 | 6.25 | 1.54 |
| CC(=O)N1CC(S(=O)(=O)c2ccc(-c3cccc4nc(N)[nH]c34)c(-c3nn[nH]n3)c2S(N)(=O)=O)C1 [Example 54, 6-(1-acetylazetidin-3-ylsulfonyl)-3-(2-amino-3H-benzo[d]imidazol-4-yl)-2-(2H-tetrazol-5-yl)benzenesulfonamide] | 2.38 | 0.178 | 50 | 16.00 | 12.5 | 6.25 | 6.25 | 3.125 | 0.435 |
| CS(=O)(=O)N1CC(S(=O)(=O)c2ccc(-c3cccc4[nH]c(N)nc34)c(-c3nn[nH]n3)c2S(N)(=O)=O)C1 [Example 55, 3-(2-amino-1H-benzo[d]imidazol-4-yl)-6-(1-(methylsulfonyl)azetidin-3-ylsulfonyl)-2-(2H-tetrazol-5-yl)benzenesulfonamide] | 1.42 | 0.0818 | 50 | 31.99 | 6.25 | 3.125 | 3.125 | 1.563 | 0.312 |
| NC(=O)N1CC(S(=O)(=O)c2ccc(-c3cccc4[nH]c(N)nc34)c(-c3nn[nH]n3)c2S(N)(=O)=O)C1 [Example 56, 3-(4-(2-amino-1H-benzo[d]imidazol-4-yl)-2-sulfamoyl-3-(2H-tetrazol-5-yl)phenylsulfonyl)azetidine-1-carboxamide] | 2.82 | 0.18 | 3.125 | 1.00 | 6.25 | 3.125 | 6.25 | 3.125 | 0.35 |
| CCOC(=O)N1CC(S(=O)(=O)c2ccc(-c3cccc4[nH]c(N)nc34)c(-c3nn[nH]n3)c2S(N)(=O)=O)C1 [Example 57, ethyl 3-(4-(2-amino-1H-benzo[d]imidazol-4-yl)-2-sulfamoyl-3-(2H-tetrazol-5-yl)phenylsulfonyl)azetidine-1-carboxylate] | 1.98 | 0.264 | 200 | 64.00 | 12.5 | 6.25 | 6.25 | 3.125 | 0.446 |
| NS(=O)(=O)c1c(S(=O)(=O)C2CNC2)ccc(-c2cccn3ccnc23)c1-c1nnn[nH]1 [Example 58, 6-(Azetidin-3-ylsulfonyl)-3-(imidazo[1,2-a]pyridin-8-yl)-2-(1H-tetrazol-5-yl)benzenesulfonamide] | 0.597 | 0.378 | 1.563 | 1.00 | 3.125 | 1.563 | 0.7813 | 1.563 | 0.342 |
| NC(=O)c1cn2cccc(-c3ccc(S(=O)(=O)C4CNC4)c(S(N)(=O)=O)c3-c3nnn[nH]3)c2n1 [Example 59, 8-(4-(azetidin-3-ylsulfonyl)-3-sulfamoyl-2-(1H-tetrazol-5-yl)phenyl)imidazo[1,2-a]pyridine-2-carboxamide] | 1.44 | 0.131 | 3.125 | 2.00 | 3.125 | 3.125 | 3.125 | 1.563 | 0.187 |
| NS(=O)(=O)c1c(S(=O)(=O)C2CNC2)ccc(-c2cccn3cncc23)c1-c1nnn[nH]1 [Example 60, 6-(azetidin-3-ylsulfonyl)-3-(imidazo[1,5-a]pyridin-8-yl)-2-(1H-tetrazol-5-yl)benzenesulfonamide] | 2.35 | 0.811 | 12.5 | 4.00 | 6.25 | 3.125 | 1.563 | 3.125 | 0.408 |
